Source: PubChem BioAssay (NCI)
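Exposure lasted 48 hours, with cells grown in 96-well plates and compounds tested at five concentrations. TGI denotes the concentration required for complete inhibition of growth.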

How the values were obtained:
Experiment in all cases: NCI anticancer screen, dose series, 48 h
HOP-62 NSCLC = test system: HOP-62 NSCLC
SF-295 CNS = test system: SF-295 CNS
T-47D breast = test system: T-47D breast
RXF 393 renal = test system: RXF 393 renal
SK-OV-3 ovarian = test system: SK-OV-3 ovarian
IGROV1 ovarian = test system: IGROV1 ovarian
786-0 renal = test system: 786-0 renal
A498 renal = test system: A498 renal
UO-31 renal = test system: UO-31 renal
MDA-MB-435 = test system: MDA-MB-435
HL-60(TB) leukemia = test system: HL-60(TB) leukemia
SW-620 colon = test system: SW-620 colon
UACC-62 melanoma = test system: UACC-62 melanoma
MOLT-4 leukemia = test system: MOLT-4 leukemia
NCI-H23 lung = test system: NCI-H23 lung
OVCAR-4 ovarian = test system: OVCAR-4 ovarian
K-562 leukemia = test system: K-562 leukemia
OVCAR-3 ovarian = test system: OVCAR-3 ovarian
NCI-H226 lung = test system: NCI-H226 lung
HS 578T breast = test system: HS 578T breast
HCT-15 colon = test system: HCT-15 colon
SR leukemia = test system: SR leukemia
MDA-MB-231 breast = test system: MDA-MB-231 breast
OVCAR-8 ovarian = test system: OVCAR-8 ovarian
SN12C renal = test system: SN12C renal
SNB-75 CNS = test system: SNB-75 CNS
EKVX NSCLC = test system: EKVX NSCLC
ACHN renal = test system: ACHN renal
NCI-H460 lung = test system: NCI-H460 lung
SK-MEL-2 melanoma = test system: SK-MEL-2 melanoma
SF-539 CNS = test system: SF-539 CNS
RPMI-8226 leukemia = test system: RPMI-8226 leukemia
OVCAR-5 ovarian = test system: OVCAR-5 ovarian
HCT-116 colon = test system: HCT-116 colon
KM12 colon = test system: KM12 colon
SK-MEL-5 melanoma = test system: SK-MEL-5 melanoma
CCRF-CEM leukemia = test system: CCRF-CEM leukemia
UACC-257 melanoma = test system: UACC-257 melanoma
M14 melanoma = test system: M14 melanoma
A549 NSCLC = test system: A549 NSCLC
DU-145 prostate = test system: DU-145 prostate
MALME-3M melanoma = test system: MALME-3M melanoma
COLO 205 colon = test system: COLO 205 colon
U251 CNS = test system: U251 CNS
TK-10 renal = test system: TK-10 renal
BT-549 breast = test system: BT-549 breast
HT29 colon = test system: HT29 colon
CAKI-1 renal = test system: CAKI-1 renal
NCI-H522 lung = test system: NCI-H522 lung
HCC-2998 colon = test system: HCC-2998 colon
SK-MEL-28 melanoma = test system: SK-MEL-28 melanoma
HOP-92 NSCLC = test system: HOP-92 NSCLC
SF-268 CNS = test system: SF-268 CNS
PC-3 prostate = test system: PC-3 prostate
SNB-19 CNS = test system: SNB-19 CNS
NCI/ADR-RES ovarian = test system: NCI/ADR-RES ovarian
MDA-N = test system: MDA-N
MCF7 breast = test system: MCF7 breast
LOX IMVI melanoma = test system: LOX IMVI melanoma

**Q.** What does the source list for `COc1ccc(/C=C(/C)[N+](=O)[O-])cc1`?
**A.** TGI (HOP-62 NSCLC): 3.61 µM; TGI (SF-295 CNS): 19 µM; TGI (T-47D breast): > 100 µM; TGI (RXF 393 renal): 3.16 µM; TGI (SK-OV-3 ovarian): 17.9 µM; TGI (IGROV1 ovarian): 6.2 µM; TGI (786-0 renal): 2.51 µM; TGI (A498 renal): 8.28 µM; TGI (UO-31 renal): 3.15 µM; TGI (MDA-MB-435): 4.16 µM; TGI (HL-60(TB) leukemia): > 21.8 µM; TGI (SW-620 colon): > 20.6 µM; TGI (UACC-62 melanoma): 3.29 µM; TGI (MOLT-4 leukemia): 5.34 µM; TGI (NCI-H23 lung): 4.35 µM; TGI (OVCAR-4 ovarian): 10.6 µM; TGI (K-562 leukemia): 16 µM; TGI (OVCAR-3 ovarian): 3.26 µM; TGI (NCI-H226 lung): 39.7 µM; TGI (HS 578T breast): 27.3 µM; TGI (HCT-15 colon): 7.36 µM; TGI (SR leukemia): 3.56 µM; TGI (MDA-MB-231 breast): 9.89 µM; TGI (OVCAR-8 ovarian): 5.75 µM; TGI (SN12C renal): 4.62 µM; TGI (SNB-75 CNS): 3.4 µM; TGI (EKVX NSCLC): 4.91 µM; TGI (ACHN renal): 3.97 µM; TGI (NCI-H460 lung): 5.22 µM; TGI (SK-MEL-2 melanoma): 10.8 µM; TGI (SF-539 CNS): 3.68 µM; TGI (RPMI-8226 leukemia): 3.75 µM; TGI (OVCAR-5 ovarian): 9.47 µM; TGI (HCT-116 colon): 3.14 µM; TGI (KM12 colon): 3.32 µM; TGI (SK-MEL-5 melanoma): 5.92 µM; TGI (CCRF-CEM leukemia): 4.48 µM; TGI (UACC-257 melanoma): 3.08 µM; TGI (M14 melanoma): 7.92 µM; TGI (A549 NSCLC): 18.2 µM; TGI (DU-145 prostate): 6.26 µM; TGI (MALME-3M melanoma): 4.59 µM; TGI (COLO 205 colon): 4.3 µM; TGI (U251 CNS): 3.05 µM; TGI (TK-10 renal): 3.64 µM; TGI (BT-549 breast): 6.91 µM; TGI (HT29 colon): 11.9 µM; TGI (CAKI-1 renal): 6.07 µM; TGI (NCI-H522 lung): 1.81 µM; TGI (HCC-2998 colon): 3.43 µM; TGI (SK-MEL-28 melanoma): 8.14 µM; TGI (HOP-92 NSCLC): 5.66 µM; TGI (SF-268 CNS): 9.42 µM; TGI (PC-3 prostate): 5.04 µM; TGI (SNB-19 CNS): 17.9 µM; TGI (NCI/ADR-RES ovarian): 13.6 µM; TGI (MDA-N): 5.25 µM; TGI (MCF7 breast): 2.51 µM

**Q.** Which TGI (LOX IMVI melanoma) does the source give for `CCCSc1ccc2[nH]c(N3C(=O)/C(=C/c4cc(OC)c(OC)c(OC)c4)N=C3c3ccccc3)cc2c1` here?
**A.** > 37.5 µM

**Q.** What about the TGI (HOP-62 NSCLC) of the same compound?
**A.** > 19.2 µM

**Q.** What about the TGI (SF-295 CNS) of the same compound?
**A.** 37.1 µM

**Q.** What about the TGI (T-47D breast) of the same compound?
**A.** 37 µM

**Q.** And the TGI (RXF 393 renal)?
**A.** 19.9 µM

**Q.** And the TGI (SK-OV-3 ovarian)?
**A.** > 25.3 µM

**Q.** What about the TGI (IGROV1 ovarian) of the same compound?
**A.** > 37.5 µM

**Q.** What about the TGI (786-0 renal) of the same compound?
**A.** > 25 µM

**Q.** And the TGI (A498 renal)?
**A.** > 25.8 µM

**Q.** What about the TGI (UO-31 renal) of the same compound?
**A.** > 37.5 µM

**Q.** What about the TGI (MDA-MB-435) of the same compound?
**A.** 16 µM

**Q.** And the TGI (HL-60(TB) leukemia)?
**A.** 17.3 µM

**Q.** And the TGI (SW-620 colon)?
**A.** > 37.5 µM

**Q.** And the TGI (UACC-62 melanoma)?
**A.** > 37.5 µM

**Q.** And the TGI (MOLT-4 leukemia)?
**A.** > 37.5 µM

**Q.** What about the TGI (NCI-H23 lung) of the same compound?
**A.** > 37.5 µM

**Q.** And the TGI (OVCAR-4 ovarian)?
**A.** > 37.5 µM

**Q.** And the TGI (K-562 leukemia)?
**A.** > 35.3 µM

**Q.** And the TGI (OVCAR-3 ovarian)?
**A.** 26.5 µM

**Q.** And the TGI (NCI-H226 lung)?
**A.** > 37.5 µM

**Q.** And the TGI (HS 578T breast)?
**A.** > 37.5 µM

**Q.** What about the TGI (HCT-15 colon) of the same compound?
**A.** > 37.5 µM

**Q.** And the TGI (SR leukemia)?
**A.** > 34.9 µM

**Q.** What about the TGI (MDA-MB-231 breast) of the same compound?
**A.** > 37.5 µM

**Q.** And the TGI (OVCAR-8 ovarian)?
**A.** > 37.5 µM

**Q.** What about the TGI (SN12C renal) of the same compound?
**A.** > 37.5 µM

**Q.** What about the TGI (SNB-75 CNS) of the same compound?
**A.** 33.5 µM

**Q.** What about the TGI (EKVX NSCLC) of the same compound?
**A.** > 37.5 µM

**Q.** And the TGI (ACHN renal)?
**A.** > 37.5 µM

**Q.** And the TGI (NCI-H460 lung)?
**A.** > 37.5 µM

**Q.** What about the TGI (SK-MEL-2 melanoma) of the same compound?
**A.** > 37.5 µM

**Q.** And the TGI (SF-539 CNS)?
**A.** 23.6 µM

**Q.** And the TGI (RPMI-8226 leukemia)?
**A.** 27.1 µM

**Q.** And the TGI (OVCAR-5 ovarian)?
**A.** > 37.5 µM

**Q.** What about the TGI (HCT-116 colon) of the same compound?
**A.** > 37.5 µM

**Q.** What about the TGI (KM12 colon) of the same compound?
**A.** > 37.5 µM

**Q.** And the TGI (SK-MEL-5 melanoma)?
**A.** 19 µM

**Q.** And the TGI (CCRF-CEM leukemia)?
**A.** > 32.9 µM

**Q.** What about the TGI (UACC-257 melanoma) of the same compound?
**A.** > 37.5 µM

**Q.** What about the TGI (M14 melanoma) of the same compound?
**A.** > 30.8 µM

**Q.** And the TGI (A549 NSCLC)?
**A.** > 25.3 µM

**Q.** What about the TGI (DU-145 prostate) of the same compound?
**A.** > 37.5 µM

**Q.** What about the TGI (MALME-3M melanoma) of the same compound?
**A.** > 37.5 µM

**Q.** What about the TGI (COLO 205 colon) of the same compound?
**A.** > 30.2 µM

**Q.** And the TGI (U251 CNS)?
**A.** > 37.5 µM

**Q.** And the TGI (TK-10 renal)?
**A.** > 37.5 µM

**Q.** And the TGI (BT-549 breast)?
**A.** 37.4 µM

**Q.** And the TGI (HT29 colon)?
**A.** > 37.5 µM

**Q.** What about the TGI (CAKI-1 renal) of the same compound?
**A.** > 37.5 µM

**Q.** And the TGI (NCI-H522 lung)?
**A.** 26.8 µM

**Q.** And the TGI (HCC-2998 colon)?
**A.** > 32.6 µM

**Q.** And the TGI (SK-MEL-28 melanoma)?
**A.** > 37.5 µM

**Q.** And the TGI (HOP-92 NSCLC)?
**A.** 36.6 µM

**Q.** What about the TGI (SF-268 CNS) of the same compound?
**A.** > 37.5 µM

**Q.** What about the TGI (PC-3 prostate) of the same compound?
**A.** > 37.5 µM

**Q.** What about the TGI (SNB-19 CNS) of the same compound?
**A.** > 37.5 µM

**Q.** What about the TGI (NCI/ADR-RES ovarian) of the same compound?
**A.** > 34.2 µM

**Q.** What about the TGI (MDA-N) of the same compound?
**A.** 12.3 µM

**Q.** What about the TGI (MCF7 breast) of the same compound?
**A.** > 37.5 µM
